# Assay results taken from US20060154323A1, “Method for obtaining dynamic and structural data pertaining to proteins and protein/ligand complexes” (ProSpect Pharma, priority 2002, published 2006).
# Assays:
# MUP [1] = target: T1, MUP (Mus musculus, UniProt P11588); assay: Binding of small hydrophobic ligands to MUP (Kd)
# T1 construct: made in house; host or cells: E. coli M15 cells with vector pqe30 MUP
# T1 sequence (P11588 19-180): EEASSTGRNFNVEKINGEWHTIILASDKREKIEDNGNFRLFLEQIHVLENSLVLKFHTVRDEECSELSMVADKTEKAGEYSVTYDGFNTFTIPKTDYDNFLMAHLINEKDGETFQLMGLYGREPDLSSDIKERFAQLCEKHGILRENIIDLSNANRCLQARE
# Mouse Urinary Protein = target: T2, Mouse Urinary Protein (Mus musculus, UniProt P11588); assay: 13C NMR relaxation (T1, T2) of valine 13CHD2-labeled MUP in absence and presence of ligand; settings: for T1, Change / T2, Change: Protein vs Bound Protein; for T1, Bound Protein / T2, Bound Protein: 298 K;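 as to T1, Bound Protein: unit milliseconds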;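 as to T2, Bound Protein: unit milliseconds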
# T2 construct: made in house; host or cells: E. coli M15 cells with vector pqe30 MUP
# T2 sequence (P11588 19-180): T1 sequence (P11588 19-180)
# Description: A 15 mg sample of L-valine-α-D-^12CD(^13CHD2)2 labeled MUP was dissolved in 650 μL phosphate buffered saline (10 mM potassium phosphate; 200 mM sodium chloride), to which was added 50 μL deuterium oxide. ^13C Relaxation rates (R2 and R1) of ^13CHD2 groups were determined using pulse sequences as described in Ishima et al., J. Am. Chem. Soc. 121:11589-11590 (1999). Spectral parameters were as follows: spectral width in the ^13C dimension, 900 Hz; spectral width in the ^1H dimension, 5200 Hz; number of real data points in the ^13C dimension, 128; number of real points in the ^1H dimension, 1408; number of transients per t1 increment, 8; probe temperature, 298 K. Prior to two-dimensional Fourier transformation, free induction decays were apodized with cosine-bell windowing functions according to known methods.
# The NMR analysis was then repeated following addition of the small molecule ligand 1 μL of isobutyl pyrazine or 1 μL of isopropyl pyrazine to separate solutions of MUP. The data shown below in Tables I and II and in FIG. 8 were obtained, clearly showing the changes in T1 and T2 values obtained on addition of these small molecule ligands.
# Major Urinary Protein = target: T3, Major Urinary Protein (Mus musculus, UniProt P11588); assay: S2axis order parameters of valine methyl groups from 600 MHz 13C R1/R2 relaxation of valine-enriched MUP and its complexes; settings: for S^2axis: MUP-ligand complex, 600 MHz, 30° C., pH 7.0
# T3 construct: made in house; host or cells: E. coli M15 cells with vector pqe30 MUP
# T3 sequence (P11588 19-180): T1 sequence (P11588 19-180)
# Description: Samples of [^13C^γ1,^γ2HD2]-U-^2H valine enriched MUP both alone and complexed with 2-methoxy-3-isopropylpyrazine and 2-methoxy-3-isobutylpyrazine were prepared from a single sample at pH 7.0 and a protein concentration of 1 mM. A further sample of methyl-^13C, ^2H enriched MUP was prepared at pH 7.0 and a protein concentration of 0.5 mM. Longitudinal (R1) and transverse (R2) ^13C relaxation rates were determined essentially as described by Ishima et al., J. Am. Chem. Soc. 121:11589-11590, 1999. All spectra were recorded at a proton frequency of 600 MHz and a probe temperature of 30° C. R1 rates were determined with relaxation delay times of 16, 64, 128, 240, 400, 720, 1120, 1600, 2240 and 2880 milliseconds. R2 rates were determined with relaxation delay times of 16, 32, 48, 64, 96, 160, 192, 240 and 288 milliseconds, and an effective field strength of 2 kHz. Relaxation data were fit to a single exponential decay function I=I0exp(−tR), where I0 is the initial resonance intensity, t is the relaxation delay time and R is the relaxation rate (R1 or R2). Relaxation data were fitted to the Lipari-Szabo model-free spectral density of the form: J(ω)=S^2τm/(1+ω^2τ^2m)+(1−S^2)τi/(1+ω^2τi^2), where τi^−1=τM^−1+τe^−1, τM is the overall molecular tumbling correlation time and τe is the effective internal correlation time. See Lipari and Szabo, J. Am. Chem. Soc. 104:4546-4559, 1982. This equation is valid for fast internal motions, τe<<τM, under which conditions the order parameter for methyl CH dipolar relaxation is given by S^2=Saxis^2[P2(cos θH]^2. Saxis^2 is the order parameter of the methyl rotation axis and θH is the angle made by the axis and the CH bond vector. A global rotational correlation time of […] was used for these calculations, according to the previously reported value. Zidek et al., Nature Str. Biol. 6:1118-1121, 1999. Although the valine residues were perdeuterated at non-methyl positions, the protein was otherwise protonated, and dipolar relaxation due to these “external” protons is not negligible for ^13C relaxation. Thus, by analogy with the work of Ishima et al. J. Am. Chem. Soc. 123:6164-6171, 2001, the contribution of these external protons to ^13C R2 values was estimated at 25% from the X-ray coordinates of MUP. Consequently, measured ^13C R^2 rates were multiplied by 0.75 to account for these external dipolar relaxation processes.
# MUP [2] = target: T1, MUP; assay: 13C-1H HSQC spectra of valine-enriched MUP complexes; settings: 13C-1H HSQC of complexes with valine-enriched MUP
# [3] = valine methyl 59.HG1 (first line)
# [4] = valine methyl 59.HG1 (second line)
compound,measurement,setting,value
COc1nccnc1CC(C)C [2-methoxy-3-isobutylpyrazine],Kd,MUP [1],80 nM
same,"T1, Change",Mouse Urinary Protein; 12.HG1,35.219 milliseconds
same,"T2, Change",Mouse Urinary Protein; 12.HG1,−13.500 milliseconds
same,"T2, Change",Mouse Urinary Protein; 12.HG2,−16.796 milliseconds
same,"T1, Change",Mouse Urinary Protein; 47.HG1,9.550 milliseconds
same,"T2, Change",Mouse Urinary Protein; 47.HG1,−16.055 milliseconds
same,"T1, Change",Mouse Urinary Protein; 47.HG2,−82.069 milliseconds
same,"T2, Change",Mouse Urinary Protein; 47.HG2,−12.196 milliseconds
same,"T1, Change",Mouse Urinary Protein; 53.HG1,−98.976 milliseconds
same,"T2, Change",Mouse Urinary Protein; 53.HG1,−10.901 milliseconds
same,"T1, Change",Mouse Urinary Protein; 53.HG2,17.840 milliseconds
same,"T2, Change",Mouse Urinary Protein; 53.HG2,−13.096 milliseconds
same,"T1, Change",Mouse Urinary Protein; 59.HG1 (first line),−84.312 milliseconds
same,"T2, Change",Mouse Urinary Protein; 59.HG1 (first line),−22.344 milliseconds
same,"T1, Change",Mouse Urinary Protein; 59.HG1 (second line),20.312 milliseconds
same,"T2, Change",Mouse Urinary Protein; 59.HG1 (second line),−3.040 milliseconds
same,"T1, Change",Mouse Urinary Protein; 70.HG1,379.619 milliseconds
same,"T2, Change",Mouse Urinary Protein; 70.HG1,−65.766 milliseconds
same,"T1, Change",Mouse Urinary Protein; 70.HG2,−324.602 milliseconds
same,"T2, Change",Mouse Urinary Protein; 70.HG2,33.869 milliseconds
same,"T1, Change",Mouse Urinary Protein; 82.HG1,1.260 milliseconds
same,"T2, Change",Mouse Urinary Protein; 82.HG1,7.645 milliseconds
same,"T1, Change",Mouse Urinary Protein; 82.HG2,−33.349 milliseconds
same,"T2, Change",Mouse Urinary Protein; 82.HG2,22.399 milliseconds
same,contribution of valine side-chains to the entropy of binding,Mouse Urinary Protein; from relaxation data in the presence of ligand,do not contribute significantly
same,"T1, Bound Protein",Mouse Urinary Protein; valine methyl 12.HG1,1760.141 milliseconds
same,"T2, Bound Protein",Mouse Urinary Protein; valine methyl 12.HG1,166.608 milliseconds
same,"T2, Bound Protein",Mouse Urinary Protein; valine methyl 12.HG2,200.110 milliseconds
same,"T1, Bound Protein",Mouse Urinary Protein; valine methyl 47.HG1,1619.169 milliseconds
same,"T2, Bound Protein",Mouse Urinary Protein; valine methyl 47.HG1,171.287 milliseconds
same,"T1, Bound Protein",Mouse Urinary Protein; valine methyl 47.HG2,1072.690 milliseconds
same,"T2, Bound Protein",Mouse Urinary Protein; valine methyl 47.HG2,162.950 milliseconds
same,"T1, Bound Protein",Mouse Urinary Protein; valine methyl 53.HG1,2332.247 milliseconds
same,"T2, Bound Protein",Mouse Urinary Protein; valine methyl 53.HG1,174.600 milliseconds
same,"T1, Bound Protein",Mouse Urinary Protein; valine methyl 53.HG2,1382.566 milliseconds
same,"T2, Bound Protein",Mouse Urinary Protein; valine methyl 53.HG2,163.379 milliseconds
same,"T1, Bound Protein",Mouse Urinary Protein; [3],1367.075 milliseconds
same,"T2, Bound Protein",Mouse Urinary Protein; [3],200.992 milliseconds
same,"T1, Bound Protein",Mouse Urinary Protein; [4],1502.825 milliseconds
same,"T2, Bound Protein",Mouse Urinary Protein; [4],150.756 milliseconds
same,"T1, Bound Protein",Mouse Urinary Protein; valine methyl 70.HG1,1701.953 milliseconds
same,"T2, Bound Protein",Mouse Urinary Protein; valine methyl 70.HG1,186.968 milliseconds
same,"T1, Bound Protein",Mouse Urinary Protein; valine methyl 70.HG2,1488.130 milliseconds
same,"T2, Bound Protein",Mouse Urinary Protein; valine methyl 70.HG2,128.164 milliseconds
same,"T1, Bound Protein",Mouse Urinary Protein; valine methyl 82.HG1,913.641 milliseconds
same,"T2, Bound Protein",Mouse Urinary Protein; valine methyl 82.HG1,216.738 milliseconds
same,"T1, Bound Protein",Mouse Urinary Protein; valine methyl 82.HG2,703.150 milliseconds
same,"T2, Bound Protein",Mouse Urinary Protein; valine methyl 82.HG2,201.054 milliseconds
same,changes in Saxis^2 of the six valine residues in MUP upon binding,Major Urinary Protein,only minor changes
same,S^2axis,Major Urinary Protein; Val-12 C^γ1,0.86
same,S^2axis,Major Urinary Protein; Val-12 C^γ2,0.66
same,S^2axis,Major Urinary Protein; Val-47 C^γ1,0.86
same,S^2axis,Major Urinary Protein; Val-47 C^γ2,0.88
same,S^2axis,Major Urinary Protein; Val-53 C^γ1,0.78
same,S^2axis,Major Urinary Protein; Val-53 C^γ2,0.86
same,S^2axis,Major Urinary Protein; Val-59 C^γ1,0.63
same,S^2axis,Major Urinary Protein; Val-59 C^γ2,0.90
same,S^2axis,Major Urinary Protein; Val-70 C^γ1,0.81
same,S^2axis,Major Urinary Protein; Val-70 C^γ2,[1.03]
same,S^2axis,Major Urinary Protein; Val-82 C^γ1,0.53
same,S^2axis,Major Urinary Protein; Val-82 C^γ2,0.53
same,contribution of valine side-chains to the entropy of binding,"Major Urinary Protein; from computations of Saxis^2 values, free protein and complexes",do not contribute significantly
same,shift perturbations of Val 82 γ1 and γ2 correlations,MUP [2],Significant shift perturbations
